Reference: patent publication US9695209B2, “Synthesis of amphiphilic calixarene glycoside detergents and use of same for extracting and stabilizing native functional membrane proteins” (CALIXAR, priority 2014, dated 2017)
Like-named read-outs stand apart in the source and are kept apart here.

What was measured:
[1] = CMC (H2O) of known detergents as stated in figure legend; format: physicochemical; settings: no source given
[2] = molecular target: T1, Bacteriorhodopsin protein (bR) (Halobacterium salinarum, UniProt P02945); assay: Stability test of bacteriorhodopsin protein over time (absorbance at 550 nm); settings: after 1 month and a half exposure at 37° C. in the dark
T1 sequence (P02945 14-262): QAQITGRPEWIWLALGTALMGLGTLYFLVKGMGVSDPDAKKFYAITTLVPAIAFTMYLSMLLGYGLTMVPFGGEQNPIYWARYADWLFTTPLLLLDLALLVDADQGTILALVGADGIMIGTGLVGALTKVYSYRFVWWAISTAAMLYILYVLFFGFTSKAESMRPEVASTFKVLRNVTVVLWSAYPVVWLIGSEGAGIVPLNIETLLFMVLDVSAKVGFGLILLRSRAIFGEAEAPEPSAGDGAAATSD

[3] = from VanAken et al. 1986; cited from earlier work
[4] = molecular target: A2A adenosine protein (Homo sapiens, UniProt P29274); assay: Test of solubilization of A2A membrane protein (Western Blot after 100 000 g centrifugation); settings: for solubility (solubilization) of A2A adenosine protein: 4° C, protein 20 mg/ml
A2A adenosine protein, sequence (P29274 whole entry): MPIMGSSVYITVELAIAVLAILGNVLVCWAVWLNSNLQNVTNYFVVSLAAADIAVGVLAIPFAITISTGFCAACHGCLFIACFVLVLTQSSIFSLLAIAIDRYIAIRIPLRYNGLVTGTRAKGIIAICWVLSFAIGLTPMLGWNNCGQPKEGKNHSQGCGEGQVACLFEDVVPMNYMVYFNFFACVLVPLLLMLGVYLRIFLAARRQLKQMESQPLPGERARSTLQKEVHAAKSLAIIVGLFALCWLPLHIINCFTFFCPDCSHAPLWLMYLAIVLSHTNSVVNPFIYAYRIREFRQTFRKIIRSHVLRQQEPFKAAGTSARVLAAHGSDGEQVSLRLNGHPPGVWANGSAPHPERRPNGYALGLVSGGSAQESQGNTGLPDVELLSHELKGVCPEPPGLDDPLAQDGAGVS
Protocol: Solubility Test of Protein of Interest: A2A Adenosine.
The protein content was set at 20 mg/ml (20 mM Tris-Cl pH 8.0, 150 mM NaCl, 10% Glycerol). The solubilization is effected at 4° C. The solubilized or non-solubilized protein fractions are separated by a 100 000 g centrifugation step for 1 hour at 4° C.

[5] = Average particle size of aggregates by DLS (Dynamic Light Scattering); format: physicochemical
Protocol: FIGS. 3a) and 3b) are two diagrams showing the average particle size obtained by DLS (Dynamic Light Scattering) analysis of CALX173GALO compound (FIG. 3a) and CALX173GLUK compound (FIG. 3b) at respectively 0.47 and 0.08 mM.
FIGS. 3a and 3b show the aggregation state of CALX173GALO and CALX173GLUK. As illustrated, all the systems observed form aggregates of the micellar type.

Compound: 25-heptyloxy-26,27,28-tris(hydroxyl)calix-[4]-arene-5,11,17-tris(acetic acid) sodium salt [CALX173ACE]
- CMC (H2O) [1]: 2.5 mM

Compound: Maltose-Neopentyl Glycol [MNG-12, reference compound]
- absorbance at 550 nm of bR protein [2]: around 0.4

Compound: CCCCCCCCCCCCO[C@@H]1O[C@H](CO)[C@@H](O[C@H]2O[C@H](CO)[C@@H](O)[C@H](O)[C@H]2O)[C@H](O)[C@H]1O [DDM, n-dodecyl-β-D-maltopyranoside, reference compound]
- CMC (H2O) [3]: 0.17 mM
- solubilization of A2A protein ([4]; 20 CMC, reference compounds): about 20%
- solubility (solubilization) of A2A adenosine protein ([4]; detergent at 20 CMC): partial

Compound: 5,11,17-Tris{2-[4-(b-D-glucopyranosyl)-1H-1,2,3-triazol-1-yl]-ethyl}-25-heptoxy-26,27,28-trismethoxy-calix[4]arene [CALX173GLUK]
- dparticules (average particle size by DLS) ([5]; at 0.08 mM): 5.53 nm
- solubility (solubilization) of A2A adenosine protein ([4]; detergent at 8 CMC): nonexistent
- solubility (solubilization) of A2A adenosine protein ([4]; detergent at 20 CMC): enhances the solubilization
- absorbance at 550 nm of bR protein [2]: 0.75

Compound: CCCCCCCCO[C@@H]1O[C@H](CO)[C@@H](O)[C@H](O)[C@H]1O [OG, Octyl Glucoside, reference compound]
- stability of the bR protein [2]: nonexistent

Compound: CCCCCCCOc1c2cccc1Cc1cc(CCO[C@@H]3O[C@H](CO)[C@H](O)[C@H](O)[C@H]3O)cc(c1OC)Cc1cc(CCO[C@@H]3O[C@H](CO)[C@H](O)[C@H](O)[C@H]3O)cc(c1OC)Cc1cc(CCO[C@@H]3O[C@H](CO)[C@H](O)[C@H](O)[C@H]3O)cc(c1OC)C2 [CALX173GALO, 5,11,17-Tris[2-(b-D-galactopyranosyloxy)ethyl]-25-heptoxy-26,27,28-trismethoxy-calix[4]arene]
- dparticules (average particle size by DLS) ([5]; at 0.47 mM): 5.46 nm
- solubilization of A2A protein compared with reference compounds DDM and CALX173ACE ([4]; 20 CMC): better
- solubility (solubilization) of A2A adenosine protein ([4]; detergent at 20 CMC): partial
- absorbance at 550 nm of bR protein [2]: around 0.4
